{
  "source": "patent US20250109127A1",
  "about": "“METHODS OF USE OF PHENOXYPROPYLAMINE COMPOUNDS TO TREAT DEPRESSION” (Minerva Neurosciences, Inc., priority 2013, published 2025)",
  "tested_on": "DOPAC release in the rat prefrontal cortex",
  "test": "Microdialysis: DOPAC release in prefrontal cortex after I.P. administration",
  "type": "in vivo",
  "conditions": "for DOPAC release, MEAN: 3 mg/kg IP; for DOPAC release, MEAN / DOPAC (% of respective basal) MEAN: n = 8",
  "method": "The aim of the study was to evaluate, using microdialysis, the effects of an intraperitoneal (I.P.) administration in rats of three different doses of SON-117 on dopamine and its metabolites, serotonin and its metabolite (5-HIAA), and norepinephrine levels in prefrontal cortex.\nThirty-two adult male Wistar rats were used for the whole study (4 groups of eight animals planned for the study, Table 1).\nSurgery was performed on rats weighing about 300 g at the beginning of the experiments. Rats were anaesthetized with Ketamine (50 mg/kg) & Xylazine (15 mg/kg) by intramuscular administration. The animals were placed in a stereotaxic apparatus in the flat-skull position at a constant setting of −3.3 mm between ear bars and the incisor bar. The animals were treated with a local anesthesic (xylocaine 1%, Astra Zeneca) and an analgesic (Temgesic, from Schering Plough, 0.05 mg/kg, s.c.). A rostrocaudal midline incision was made with a lancet to expose the dorsal skull surface. The “stereotaxic zero” was defined by the Bregma in accordance with Paxinos and Watson's atlas (1986). A hole was drilled in the skull with a drill and the meninges were pierced with a sterile needle to implant a CMA12 guide cannula which later received the dialysis probe.\nCoordinates used for implanting guide cannula in prefrontal cortex from Bregma were anteroposterior 3.7 mm, mediolateral 0.8 mm, and dorsoventral −2 mm (top of the probe was at −5 mm). The guide cannula was fixed to the skull with two stainless steel screws (1.88 mm outside diameter) anchored. An application of dental cement was added. A plastic collar allowed each animal to be tethered to a Swivel assembly of the CMA 120 awake animal system. Following surgery, rats were kept in individual cages and allowed to recover for a minimum of 3-5 days before the experimentation. The rats were handled and put in plastic bowl for 10 min at least every day to habituate the animals to their new environment for the dialysis. An I.P. administration with saline was also performed every day.\nDialysis probes (CMA12/3 mm, membrane, 20 kD cut-off, Carnegie Medicine, Stockholm, Sweden), were carefully washed before inserting into the guide cannula. The wash was performed with the artificial cerebrospinal fluid (aCSF) medium (NaCl 147 mM, KCl 2.7 mM, CaCl2 1.2 mM, MgCl2 0.85 mM) at room temperature. The dialysis system was then equilibrated at 20° C. at a perfusion rate of 1 μl/min with a Carnegie pump (CMA100). All catheters (FEP tubing, internal volume of 1.2 μl/10 cm, and tubing adaptors) used for microdialysis were treated in the same conditions.\nThe probes duly prepared were inserted into the guide cannula and the CMA120 Swivel assembly secured to the animal using a plastic collar. Flow through the dialysis probe with aCSF was maintained at a rate of 1 μl/min during the whole experimentation. The first four fractions (corresponding to 2 hours) were discarded to avoid the effects of parenchymal disturbance and to ensure that an approximate steady-state level was reached. Fractions were then collected over a period of 8.5 h during which time the animals remained quiet. The dialysates were automatically collected with an autosampler (microfraction collector CMA 140, Carnegie Medicin) and stored at −80° C. until analysis. […] Perfusion was then maintained for 7 hours with aCSF. The dialysates (30 μl) were collected into 300 μl vials, transferred into dry ice and then kept frozen (−80° C.) until analysis. Frozen samples were shipped to a partner for analysis. At the end of the microdialysis study, a PBS with colored ink was perfused through the probe in order to visualize the dialyzed area.\nCatecholamine assay: Concentrations of dopamine, DOPAC, HVA, 5-HIAA, 5-HT, and norepinephrin were determined for each sample by HPLC coupled with electrochemical detection.",
  "note": "Where a name gives a salt, the structure may show the parent alone.",
  "data": [
    {"compound": "Cc1nnc(-c2cc3c(OC[C@@H](O)CN4CCC(c5ccc(Cl)c(Cl)c5)CC4)cccc3o2)o1", "note": "[SON-117, (S)-1-(4-(3,4-dichlorophenyl)piperidino)-3-(2-(5-methyl-1,3,4-oxadiazol-2-yl)benzo(b)furan-4-yloxy)-2-propanol hydrochloride]", "values": [
      {"measurement": "DOPAC release, MEAN", "setting": "T-1 h 30-T-1 h (before administration)", "value": "101.39 % of respective basal"},
      {"measurement": "DOPAC release, MEAN", "setting": "T-1 h-T-30 min (before administration)", "value": "103.75 % of respective basal"},
      {"measurement": "DOPAC levels, change (not statistically significant)", "setting": "SON-117 0.1 mg/kg I.P., from 1.5 h to 2.5 h and from 4.5 h to 7 h", "value": "tended to induce a slight increase"},
      {"measurement": "release of DOPAC, trend", "setting": "SON-117 0.1 mg/kg, at 2 h and from 4.5 h to 7 h", "value": "trend for an increased release"},
      {"measurement": "DOPAC dialysate levels vs mean pre-administration value", "setting": "SON-117 0.3 mg/kg IP", "value": "no statistically significant differences"},
      {"measurement": "DOPAC dialysate levels vs mean pre-administration value", "setting": "SON-117 3 mg/kg IP", "value": "no statistically significant differences"},
      {"measurement": "DOPAC, difference to the citalopram group (two-way ANOVA)", "setting": "SON-117 at the three doses tested, in function of time", "value": "no significant differences"},
      {"measurement": "DOPAC (% of respective basal) MEAN", "setting": "SON-117 group 0.1 mg/kg I.P., T0-T30 min", "value": "81.81 % of respective basal"},
      {"measurement": "DOPAC (% of respective basal) MEAN", "setting": "SON-117 group 0.1 mg/kg I.P., T30-T1 h", "value": "104.52 % of respective basal"},
      {"measurement": "DOPAC (% of respective basal) MEAN", "setting": "SON-117 group 0.1 mg/kg I.P., T1 h 30-T2 h", "value": "144.57 % of respective basal"},
      {"measurement": "DOPAC (% of respective basal) MEAN", "setting": "SON-117 group 0.1 mg/kg I.P., T1 h-T1 h 30", "value": "112.3 % of respective basal"},
      {"measurement": "DOPAC (% of respective basal) MEAN", "setting": "SON-117 group 0.1 mg/kg I.P., T2 h 30-T3 h", "value": "94.20 % of respective basal"},
      {"measurement": "DOPAC (% of respective basal) MEAN", "setting": "SON-117 group 0.1 mg/kg I.P., T2 h-T2 h 30", "value": "102.15 % of respective basal"},
      {"measurement": "DOPAC (% of respective basal) MEAN", "setting": "SON-117 group 0.1 mg/kg I.P., T3 h 30-T4 h", "value": "96.09 % of respective basal"},
      {"measurement": "DOPAC (% of respective basal) MEAN", "setting": "SON-117 group 0.1 mg/kg I.P., T3 h-T3 h 30", "value": "90.94 % of respective basal"},
      {"measurement": "DOPAC (% of respective basal) MEAN", "setting": "SON-117 group 0.1 mg/kg I.P., T4 h 30-T5 h", "value": "120.32 % of respective basal"},
      {"measurement": "DOPAC (% of respective basal) MEAN", "setting": "SON-117 group 0.1 mg/kg I.P., T4 h-T4 h 30", "value": "142.52 % of respective basal"},
      {"measurement": "DOPAC (% of respective basal) MEAN", "setting": "SON-117 group 0.1 mg/kg I.P., T5 h 30-T6 h", "value": "122.76 % of respective basal"},
      {"measurement": "DOPAC (% of respective basal) MEAN", "setting": "SON-117 group 0.1 mg/kg I.P., T5 h-T5 h 30", "value": "129.53 % of respective basal"},
      {"measurement": "DOPAC (% of respective basal) MEAN", "setting": "SON-117 group 0.1 mg/kg I.P., T6 h 30-T7 h", "value": "137.94 % of respective basal"},
      {"measurement": "DOPAC (% of respective basal) MEAN", "setting": "SON-117 group 0.1 mg/kg I.P., T6 h-T6 h 30", "value": "127.81 % of respective basal"},
      {"measurement": "DOPAC (% of respective basal) MEAN", "setting": "SON-117 group 0.1 mg/kg I.P., T-30 min-T0 (before administration)", "value": "90.82 % of respective basal"},
      {"measurement": "DOPAC (% of respective basal) MEAN", "setting": "SON-117 group 0.1 mg/kg I.P., T-1 h 30-T-1 h (before administration)", "value": "109.18 % of respective basal"},
      {"measurement": "DOPAC (% of respective basal) MEAN", "setting": "SON-117 group 0.1 mg/kg I.P., T-1 h-T-30 min (before administration)", "value": "100.52 % of respective basal"},
      {"measurement": "DOPAC (% of respective basal) MEAN", "setting": "SON-117 group 0.3 mg/kg I.P., T0-T30 min", "value": "86.10 % of respective basal"},
      {"measurement": "DOPAC (% of respective basal) MEAN", "setting": "SON-117 group 0.3 mg/kg I.P., T30-T1 h", "value": "84.32 % of respective basal"},
      {"measurement": "DOPAC (% of respective basal) MEAN", "setting": "SON-117 group 0.3 mg/kg I.P., T1 h 30-T2 h", "value": "102.17 % of respective basal"},
      {"measurement": "DOPAC (% of respective basal) MEAN", "setting": "SON-117 group 0.3 mg/kg I.P., T1 h-T1 h 30", "value": "93.91 % of respective basal"},
      {"measurement": "DOPAC (% of respective basal) MEAN", "setting": "SON-117 group 0.3 mg/kg I.P., T2 h 30-T3 h", "value": "83.76 % of respective basal"},
      {"measurement": "DOPAC (% of respective basal) MEAN", "setting": "SON-117 group 0.3 mg/kg I.P., T2 h-T2 h 30", "value": "81.99 % of respective basal"},
      {"measurement": "DOPAC (% of respective basal) MEAN", "setting": "SON-117 group 0.3 mg/kg I.P., T3 h 30-T4 h", "value": "94.46 % of respective basal"},
      {"measurement": "DOPAC (% of respective basal) MEAN", "setting": "SON-117 group 0.3 mg/kg I.P., T3 h-T3 h 30", "value": "83.66 % of respective basal"},
      {"measurement": "DOPAC (% of respective basal) MEAN", "setting": "SON-117 group 0.3 mg/kg I.P., T4 h 30-T5 h", "value": "107.30 % of respective basal"},
      {"measurement": "DOPAC (% of respective basal) MEAN", "setting": "SON-117 group 0.3 mg/kg I.P., T4 h-T4 h 30", "value": "94.25 % of respective basal"},
      {"measurement": "DOPAC (% of respective basal) MEAN", "setting": "SON-117 group 0.3 mg/kg I.P., T5 h 30-T6 h", "value": "88.68 % of respective basal"},
      {"measurement": "DOPAC (% of respective basal) MEAN", "setting": "SON-117 group 0.3 mg/kg I.P., T5 h-T5 h 30", "value": "79.90 % of respective basal"},
      {"measurement": "DOPAC (% of respective basal) MEAN", "setting": "SON-117 group 0.3 mg/kg I.P., T6 h 30-T7 h", "value": "96.87 % of respective basal"},
      {"measurement": "DOPAC (% of respective basal) MEAN", "setting": "SON-117 group 0.3 mg/kg I.P., T6 h-T6 h 30", "value": "97.32 % of respective basal"},
      {"measurement": "DOPAC (% of respective basal) MEAN", "setting": "SON-117 group 0.3 mg/kg I.P., T-30 min-T0 (before administration)", "value": "92.84 % of respective basal"},
      {"measurement": "DOPAC (% of respective basal) MEAN", "setting": "SON-117 group 0.3 mg/kg I.P., T-1 h 30-T-1 h (before administration)", "value": "104.24 % of respective basal"},
      {"measurement": "DOPAC (% of respective basal) MEAN", "setting": "SON-117 group 0.3 mg/kg I.P., T-1 h-T-30 min (before administration)", "value": "102.91 % of respective basal"}
    ]}
  ]
}
